Among the test systems are MDA-MB-231 breast; TK-10 renal; U251 CNS; NCI-H460 lung; MALME-3M melanoma; UACC-257 melanoma; CCRF-CEM leukemia; SF-295 CNS; OVCAR-8 ovarian; HCT-116 colon.
Test in all cases: DTP human tumour cell line panel, 48 h

Several values for one entry are separate records, joined by “and”; a condition that tells them apart may be missing. Equal values may be shown once.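 Briefly, cells in 96-well plates were exposed to five compound concentrations for 48 h, and endpoints were estimated by linear interpolation. The concentration for 50% growth inhibition is given as GI50. At the TGI there is no net growth.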

As to `CNc1nc(N)c(N=O)c(Nc2ccc(Br)cc2)n1`, the total growth inhibition concentration (TGI) in the experiment on MDA-MB-231 breast, in the experiment with TK-10 renal, with U251 CNS, in the experiment on NCI-H460 lung, in the experiment with MALME-3M melanoma and with UACC-257 melanoma was greater than 100 µM throughout. Further, the TGI in the experiment with CCRF-CEM leukemia, in the experiment with SF-295 CNS, in the experiment on OVCAR-8 ovarian and in the experiment on HCT-116 colon was greater than 100 µM in each case.
For `COc1cc2c(c(OC)c1OC)-c1c(cc3c(c1OC)OCO3)C1OC2C(C)C1C` (stereo not drawn) (tested in a mixture with another compound), the TGI in the experiment with MDA-MB-231 breast, in the experiment with TK-10 renal, in the experiment with U251 CNS, in the experiment on NCI-H460 lung, in the experiment on MALME-3M melanoma and with UACC-257 melanoma was greater than 100 µM throughout. Further, the TGI with CCRF-CEM leukemia, with SF-295 CNS, with OVCAR-8 ovarian and in the experiment with HCT-116 colon was greater than 100 µM each time.
On to `Nc1nc(-c2cccc(Cl)c2)c(-c2ccc3ncccc3n2)s1`, for which the GI50 (in general, the concentration at which growth is held to half of that of the control) with MDA-MB-231 breast is greater than 25 µM; in the experiment on TK-10 renal it was greater than 17.2 µM; in the experiment with U251 CNS, greater than 25 µM; in the experiment on NCI-H460 lung it was greater than 25 µM; in the experiment with MALME-3M melanoma, greater than 25 µM; with UACC-257 melanoma, greater than 25 µM. The GI50 in the experiment on CCRF-CEM leukemia, in the experiment with SF-295 CNS, in the experiment with OVCAR-8 ovarian and with HCT-116 colon was greater than 25 µM each time. For the same molecule, the total growth inhibition concentration (TGI) in the experiment on MDA-MB-231 breast, with TK-10 renal, with U251 CNS, with NCI-H460 lung, in the experiment on MALME-3M melanoma and in the experiment on UACC-257 melanoma was greater than 25 µM throughout. Further, the total growth inhibition concentration (TGI) in the experiment on CCRF-CEM leukemia, with SF-295 CNS, in the experiment with OVCAR-8 ovarian and in the experiment on HCT-116 colon was greater than 25 µM each time.
Take `CC(C)(C)c1cc(NC(=O)Cc2ccc(-c3cnc4cc(-c5cnn(CCN6CCOCC6)c5)ccc4n3)cc2)no1`: the GI50 is 0.622 µM and 0.573 µM in the experiment on MDA-MB-231 breast; 0.337 µM and 0.456 µM and 0.0964 µM in the experiment on U251 CNS; 0.181 µM and 0.32 µM and 0.0456 µM in the experiment on NCI-H460 lung; 0.187 µM and 0.278 µM and 0.0505 µM in the experiment with MALME-3M melanoma; 0.163 µM and 0.388 µM and 0.107 µM in the experiment with CCRF-CEM leukemia; 0.436 µM and 0.461 µM and 0.0839 µM with SF-295 CNS. For the same molecule, the concentration for 50% growth inhibition (GI50) is 0.481 µM and 0.507 µM and 0.121 µM with OVCAR-8 ovarian; 0.226 µM and 0.417 µM and 0.0705 µM in the experiment with HCT-116 colon. Moreover, the TGI (commonly the concentration at which net growth stops) in the experiment with MDA-MB-231 breast is 50 µM and > 100 µM and > 2.85 µM; in the experiment with TK-10 renal, 50 µM and > 100 µM and > 3 µM; in the experiment with U251 CNS, 50 µM and > 100 µM and > 3 µM; with NCI-H460 lung, 50 µM and > 100 µM and > 3 µM; in the experiment on MALME-3M melanoma, 11.3 µM and 2.82 µM; in the experiment with UACC-257 melanoma, 50 µM and > 100 µM and > 3 µM. Further, the TGI in the experiment on CCRF-CEM leukemia was 22.8 µM and > 100 µM and > 3 µM; in the experiment on SF-295 CNS, 50 µM and > 100 µM and > 3 µM; in the experiment with OVCAR-8 ovarian, 50 µM and > 100 µM and > 3 µM; with HCT-116 colon, 50 µM and > 100 µM and > 3 µM.
With `N#Cc1cccc(NC(=O)c2cc(-c3ccc(F)cc3F)ccc2O)c1`, the GI50 in the experiment with MDA-MB-231 breast is 2.01 µM; in the experiment with TK-10 renal, 3.24 µM; with U251 CNS, 2.79 µM; in the experiment with NCI-H460 lung it was 2.75 µM; with MALME-3M melanoma, 1.44 µM; with UACC-257 melanoma it was 1.53 µM. Moreover, the GI50 was 3.07 µM in the experiment on CCRF-CEM leukemia, 2.16 µM in the experiment on SF-295 CNS, 2.88 µM with OVCAR-8 ovarian and 2.57 µM in the experiment on HCT-116 colon. Besides, the concentration for total growth inhibition (TGI) was 5.23 µM in the experiment with MDA-MB-231 breast; 20.1 µM in the experiment with TK-10 renal; greater than 100 µM in the experiment on U251 CNS; 11.2 µM with NCI-H460 lung; 5.48 µM with MALME-3M melanoma; 5.84 µM with UACC-257 melanoma. The concentration for total growth inhibition (TGI) in the experiment with CCRF-CEM leukemia was 47.7 µM; with SF-295 CNS it was 5.19 µM; with OVCAR-8 ovarian, greater than 100 µM; in the experiment with HCT-116 colon, 10.6 µM.
With `Nc1ncn(C2CC(O)C(CO)O2)c(=O)n1` (stereo not drawn), the TGI in the experiment with MDA-MB-231 breast is greater than 343 µM; with TK-10 renal, greater than 375 µM; in the experiment on U251 CNS, greater than 307 µM; in the experiment with NCI-H460 lung, greater than 375 µM; with MALME-3M melanoma it was greater than 375 µM; in the experiment with UACC-257 melanoma, 131 µM. Also, the total growth inhibition concentration (TGI) is greater than 261 µM in the experiment with CCRF-CEM leukemia, 247 µM in the experiment on SF-295 CNS, 370 µM with OVCAR-8 ovarian and greater than 375 µM in the experiment with HCT-116 colon.
Consider `Cn1c2ccccc2c2c3[nH]c(=O)[nH]c(=O)c3c3c4ccccc4n(C)c3c21`, for which the GI50 in the experiment on MDA-MB-231 breast is 5.41 µM; in the experiment on TK-10 renal, 1.91 µM; with U251 CNS, 3.02 µM; in the experiment on NCI-H460 lung it was 3.09 µM; in the experiment with MALME-3M melanoma, 2.03 µM; in the experiment on UACC-257 melanoma, greater than 100 µM. For the same molecule, the GI50 in the experiment on CCRF-CEM leukemia was 3.73 µM; with SF-295 CNS, 10.5 µM; with OVCAR-8 ovarian, 2.94 µM; in the experiment with HCT-116 colon it was 2.37 µM. Besides, the TGI was 31.4 µM with MDA-MB-231 breast; 16.5 µM with TK-10 renal; 13 µM in the experiment on U251 CNS; greater than 100 µM with NCI-H460 lung; 6.14 µM in the experiment on MALME-3M melanoma; greater than 100 µM with UACC-257 melanoma. Besides, the TGI with CCRF-CEM leukemia was greater than 100 µM; in the experiment with SF-295 CNS, 27.8 µM; in the experiment with OVCAR-8 ovarian, 14.1 µM; in the experiment on HCT-116 colon it was 12.9 µM.
In the case of `Cc1ccc(C(=O)Nc2ccc(CN3CCN(C)CC3)c(C(F)(F)F)c2)cc1C#Cc1cnc(N)c2ccccc12`, the GI50 was 0.519 µM in the experiment with MDA-MB-231 breast; 0.562 µM with TK-10 renal; 0.348 µM with U251 CNS; 0.32 µM with NCI-H460 lung; 0.248 µM in the experiment on MALME-3M melanoma; 0.736 µM in the experiment on UACC-257 melanoma. The GI50 was 0.622 µM in the experiment with CCRF-CEM leukemia, 0.785 µM in the experiment on SF-295 CNS, 0.476 µM with OVCAR-8 ovarian and 0.336 µM with HCT-116 colon. Also, the TGI with MDA-MB-231 breast stood at 1.22 µM; in the experiment on TK-10 renal, 1.36 µM; in the experiment on U251 CNS, 1.12 µM; in the experiment on NCI-H460 lung, 1.08 µM; with MALME-3M melanoma, 0.951 µM; in the experiment with UACC-257 melanoma, 1.73 µM. Also, the TGI in the experiment on CCRF-CEM leukemia was 3.04 µM; in the experiment with SF-295 CNS it was 1.69 µM; in the experiment on OVCAR-8 ovarian, 2.09 µM; in the experiment with HCT-116 colon, 1.01 µM.

The record behind these values is PubChem BioAssay (NCI).
